In ChEMBL document CHEMBL1201862, “PubChem BioAssay data set” (2004):
Values belong to the compound of their own block, whether it stands above or below them. Active and inactive are the calls of the source.

Columns and labels:
Format in all cases: functional
[1] = molecular target: Melanin-concentrating hormone receptor 1 (Homo sapiens, UniProt Q99705); experiment: Late-stage fluorescence-based counterscreen for antagonists of the G-protein coupled receptor 7 (GPR7): cell-based dose response assay to identify antagonists of the melanin-concentrating hormone receptor 1 (MCHR1) Set 6.
[2] = molecular target: Neuropeptides B/W receptor type 1 (Homo sapiens, UniProt P48145); experiment: GPR7 antagonist potency, late-stage follow-up, cell-based, fluorescence, dose response, set 6 (AID 588583)
[3] = molecular target: T1, High affinity choline transporter 1 (Homo sapiens, UniProt Q9GZV3); experiment: CHT inhibitors, dose response, cell-based, 5-point CRC, membrane potential dye (AID 504840)
T1 sequence (Q9GZV3 whole entry): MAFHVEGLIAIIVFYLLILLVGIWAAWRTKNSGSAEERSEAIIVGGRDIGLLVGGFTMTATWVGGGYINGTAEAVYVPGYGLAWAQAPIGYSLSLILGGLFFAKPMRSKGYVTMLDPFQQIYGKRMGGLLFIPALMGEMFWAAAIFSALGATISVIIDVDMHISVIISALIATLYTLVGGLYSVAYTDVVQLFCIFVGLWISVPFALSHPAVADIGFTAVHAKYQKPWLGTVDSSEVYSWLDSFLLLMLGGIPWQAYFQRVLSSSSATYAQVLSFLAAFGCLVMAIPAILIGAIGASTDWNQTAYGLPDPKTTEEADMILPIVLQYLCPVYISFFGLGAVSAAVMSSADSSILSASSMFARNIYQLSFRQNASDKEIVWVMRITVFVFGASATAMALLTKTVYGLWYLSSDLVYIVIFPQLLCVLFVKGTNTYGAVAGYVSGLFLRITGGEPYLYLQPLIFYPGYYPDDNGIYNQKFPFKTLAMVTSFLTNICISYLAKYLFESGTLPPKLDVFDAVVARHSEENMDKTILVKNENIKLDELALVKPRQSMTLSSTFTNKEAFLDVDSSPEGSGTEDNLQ

[4] = molecular target: T1, High affinity choline transporter 1; experiment: CHT inhibitors, dose response, cell-based, 10-point CRC, membrane potential dye (AID 588401);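 note: membrane potential dye fluorescence of choline-evoked depolarization via CHT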
[5] = molecular target: ALK tyrosine kinase receptor (Homo sapiens, UniProt Q9UM73);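 note: ALK tested as one member of a kinase panel screen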
[6] = molecular target: Wee1-like protein kinase (Homo sapiens, UniProt P30291); experiment: Navigating the Kinome. Panel member name: WEE1
[7] = molecular target: T2, Aurora kinase A (Homo sapiens, UniProt O14965);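 note: value from the Navigating the Kinome kinase panel profiling, panel entry STK6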
T2 sequence (O14965 whole entry): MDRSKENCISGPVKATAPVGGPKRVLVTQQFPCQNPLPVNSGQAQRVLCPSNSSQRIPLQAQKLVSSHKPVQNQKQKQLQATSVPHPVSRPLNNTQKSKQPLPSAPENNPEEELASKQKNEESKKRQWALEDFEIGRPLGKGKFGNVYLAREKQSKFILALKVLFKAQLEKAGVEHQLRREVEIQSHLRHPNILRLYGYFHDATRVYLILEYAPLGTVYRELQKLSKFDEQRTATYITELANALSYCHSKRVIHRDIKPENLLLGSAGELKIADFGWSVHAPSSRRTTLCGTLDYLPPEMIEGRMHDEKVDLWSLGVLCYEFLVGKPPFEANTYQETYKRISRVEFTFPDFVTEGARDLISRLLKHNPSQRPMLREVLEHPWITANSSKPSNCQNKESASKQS

[8] = molecular target: Cell division cycle 7-related protein kinase (Homo sapiens, UniProt O00311);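 note: value obtained from a kinome-wide kinase panel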
[9] = molecular target: Aurora kinase B (Homo sapiens, UniProt Q96GD4)
Sequence of Aurora kinase B (Q96GD4 whole entry): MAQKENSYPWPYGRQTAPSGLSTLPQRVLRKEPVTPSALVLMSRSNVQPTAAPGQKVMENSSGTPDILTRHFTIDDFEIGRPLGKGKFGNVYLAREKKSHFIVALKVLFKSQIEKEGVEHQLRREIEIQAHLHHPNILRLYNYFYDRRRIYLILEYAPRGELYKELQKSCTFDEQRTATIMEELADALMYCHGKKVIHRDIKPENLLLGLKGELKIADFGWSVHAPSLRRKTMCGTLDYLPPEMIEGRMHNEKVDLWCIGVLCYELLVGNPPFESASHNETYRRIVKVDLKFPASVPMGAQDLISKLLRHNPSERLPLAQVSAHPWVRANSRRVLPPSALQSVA

Sequence of Neuropeptides B/W receptor type 1 (P48145 whole entry): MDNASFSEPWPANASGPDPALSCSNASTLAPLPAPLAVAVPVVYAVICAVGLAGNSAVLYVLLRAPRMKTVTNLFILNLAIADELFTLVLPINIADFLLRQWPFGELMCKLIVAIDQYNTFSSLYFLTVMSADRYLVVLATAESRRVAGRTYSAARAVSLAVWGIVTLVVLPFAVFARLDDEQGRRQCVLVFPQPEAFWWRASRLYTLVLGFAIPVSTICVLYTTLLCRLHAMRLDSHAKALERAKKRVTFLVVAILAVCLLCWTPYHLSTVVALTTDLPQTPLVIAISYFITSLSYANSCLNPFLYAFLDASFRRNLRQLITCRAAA
Sequence of Melanin-concentrating hormone receptor 1 (Q99705 whole entry): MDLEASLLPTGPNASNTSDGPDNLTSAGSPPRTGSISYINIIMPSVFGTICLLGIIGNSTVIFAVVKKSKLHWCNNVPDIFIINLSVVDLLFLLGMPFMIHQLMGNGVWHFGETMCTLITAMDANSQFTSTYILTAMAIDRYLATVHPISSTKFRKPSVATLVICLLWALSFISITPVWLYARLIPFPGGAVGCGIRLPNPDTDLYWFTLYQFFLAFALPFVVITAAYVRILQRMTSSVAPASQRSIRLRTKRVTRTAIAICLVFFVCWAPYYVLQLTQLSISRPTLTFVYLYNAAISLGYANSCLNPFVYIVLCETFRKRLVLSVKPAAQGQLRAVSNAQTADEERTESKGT
Sequence of Cell division cycle 7-related protein kinase (O00311 whole entry): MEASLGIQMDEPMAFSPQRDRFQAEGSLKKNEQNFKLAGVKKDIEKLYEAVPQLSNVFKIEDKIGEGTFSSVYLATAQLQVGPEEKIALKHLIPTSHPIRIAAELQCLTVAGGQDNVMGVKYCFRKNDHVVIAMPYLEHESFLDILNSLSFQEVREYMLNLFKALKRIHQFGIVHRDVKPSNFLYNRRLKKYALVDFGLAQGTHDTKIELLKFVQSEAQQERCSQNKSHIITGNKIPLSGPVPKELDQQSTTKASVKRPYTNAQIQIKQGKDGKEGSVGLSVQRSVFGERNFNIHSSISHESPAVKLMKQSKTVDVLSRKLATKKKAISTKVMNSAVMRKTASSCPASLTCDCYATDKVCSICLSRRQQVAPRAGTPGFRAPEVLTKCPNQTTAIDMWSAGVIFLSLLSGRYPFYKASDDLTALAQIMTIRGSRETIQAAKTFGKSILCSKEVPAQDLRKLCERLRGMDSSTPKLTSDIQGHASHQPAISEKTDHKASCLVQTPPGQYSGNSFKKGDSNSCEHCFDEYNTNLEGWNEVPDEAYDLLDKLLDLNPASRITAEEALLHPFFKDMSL
Sequence of ALK tyrosine kinase receptor (Q9UM73 whole entry): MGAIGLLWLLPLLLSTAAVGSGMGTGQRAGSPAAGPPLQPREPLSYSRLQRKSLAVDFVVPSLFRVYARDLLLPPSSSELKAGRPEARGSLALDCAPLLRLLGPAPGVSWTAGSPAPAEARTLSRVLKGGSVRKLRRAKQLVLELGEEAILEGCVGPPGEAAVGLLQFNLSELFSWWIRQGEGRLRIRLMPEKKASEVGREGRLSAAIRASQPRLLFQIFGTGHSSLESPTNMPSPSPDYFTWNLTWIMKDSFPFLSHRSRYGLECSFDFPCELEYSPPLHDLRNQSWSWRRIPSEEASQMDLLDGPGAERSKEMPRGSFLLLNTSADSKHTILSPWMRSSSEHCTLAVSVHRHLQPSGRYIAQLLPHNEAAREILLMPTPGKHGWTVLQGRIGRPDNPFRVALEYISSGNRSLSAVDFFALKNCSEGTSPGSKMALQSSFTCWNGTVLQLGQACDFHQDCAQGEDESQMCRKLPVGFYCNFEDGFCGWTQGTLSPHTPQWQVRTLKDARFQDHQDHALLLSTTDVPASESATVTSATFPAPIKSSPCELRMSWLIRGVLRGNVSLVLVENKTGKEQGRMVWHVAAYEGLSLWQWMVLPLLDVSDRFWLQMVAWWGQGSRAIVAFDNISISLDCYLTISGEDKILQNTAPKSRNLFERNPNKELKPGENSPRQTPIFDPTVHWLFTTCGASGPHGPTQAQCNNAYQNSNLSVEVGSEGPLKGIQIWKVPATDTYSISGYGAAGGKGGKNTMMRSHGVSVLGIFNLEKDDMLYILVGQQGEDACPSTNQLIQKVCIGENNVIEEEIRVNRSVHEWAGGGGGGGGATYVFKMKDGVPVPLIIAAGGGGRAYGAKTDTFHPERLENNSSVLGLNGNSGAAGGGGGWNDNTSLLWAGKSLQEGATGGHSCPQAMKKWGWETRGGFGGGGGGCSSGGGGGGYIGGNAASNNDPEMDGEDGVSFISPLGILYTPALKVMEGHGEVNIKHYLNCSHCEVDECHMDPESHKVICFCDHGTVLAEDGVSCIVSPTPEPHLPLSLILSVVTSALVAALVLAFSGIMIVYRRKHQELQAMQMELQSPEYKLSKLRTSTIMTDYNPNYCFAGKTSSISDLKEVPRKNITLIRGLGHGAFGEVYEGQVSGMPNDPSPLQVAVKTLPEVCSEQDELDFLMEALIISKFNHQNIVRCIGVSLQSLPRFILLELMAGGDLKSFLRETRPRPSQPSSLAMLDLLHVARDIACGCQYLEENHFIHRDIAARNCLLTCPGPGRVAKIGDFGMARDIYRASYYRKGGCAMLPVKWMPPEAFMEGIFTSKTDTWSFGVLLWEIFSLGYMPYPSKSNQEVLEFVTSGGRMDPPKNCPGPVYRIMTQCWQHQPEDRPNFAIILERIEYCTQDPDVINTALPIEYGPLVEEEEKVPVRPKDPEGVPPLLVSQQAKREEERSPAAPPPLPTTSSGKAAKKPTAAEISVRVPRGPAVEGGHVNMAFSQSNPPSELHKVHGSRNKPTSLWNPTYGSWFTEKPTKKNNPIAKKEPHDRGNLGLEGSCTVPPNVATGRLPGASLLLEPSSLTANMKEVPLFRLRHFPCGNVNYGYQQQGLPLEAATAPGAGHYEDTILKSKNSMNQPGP
Sequence of Wee1-like protein kinase (P30291 whole entry): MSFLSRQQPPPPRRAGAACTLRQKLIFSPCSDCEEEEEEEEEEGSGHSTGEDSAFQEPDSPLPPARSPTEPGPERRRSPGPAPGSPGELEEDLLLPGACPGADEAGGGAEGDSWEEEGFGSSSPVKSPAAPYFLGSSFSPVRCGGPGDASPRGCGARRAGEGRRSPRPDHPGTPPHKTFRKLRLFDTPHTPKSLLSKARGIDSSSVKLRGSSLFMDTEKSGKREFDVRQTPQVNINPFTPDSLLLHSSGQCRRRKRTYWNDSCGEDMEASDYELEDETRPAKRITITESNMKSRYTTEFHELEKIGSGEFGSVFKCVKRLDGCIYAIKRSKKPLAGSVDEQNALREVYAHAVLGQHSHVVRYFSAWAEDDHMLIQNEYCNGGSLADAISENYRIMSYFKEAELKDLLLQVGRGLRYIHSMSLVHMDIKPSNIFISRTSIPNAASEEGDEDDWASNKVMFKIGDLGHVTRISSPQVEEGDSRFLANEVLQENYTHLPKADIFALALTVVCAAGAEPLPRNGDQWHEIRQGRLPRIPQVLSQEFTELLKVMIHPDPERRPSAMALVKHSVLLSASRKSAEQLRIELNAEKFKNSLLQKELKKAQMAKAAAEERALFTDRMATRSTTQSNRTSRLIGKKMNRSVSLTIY

IC50 [1]: ~624 nM (active) | IC50 [2]: ~624 nM (active)
Structure (SMILES): CCOc1ccccc1Cn1ncc(Cl)c(Oc2ccc(OC)cc2)c1=O

IC50 [3]: 10000 nM (active) | IC50 [4]: 4220 nM (active)
Structure (SMILES): CC(CN1CCN(C)CC1)OC(=O)c1ccccc1Cl (centres undefined)

Ki [5]: 15.8 nM (active) | Ki [6]: 7.94 nM (active)
Structure (SMILES): CCN1CCN(c2ccc(Nc3ncc(C(F)(F)F)c(Nc4ccc5[nH]ncc5c4)n3)cc2)CC1

Ki [7]: 20 nM (active) | Ki [8]: 0.126 nM (active) | Ki [9]: 5.01 nM (active)
Structure (SMILES): COc1ccc(Nc2nccc(Nc3ccccc3C(=O)O)n2)cc1O
